Where two headings read alike, the source gives them in different places.
Tests used:
RyR1 [1] = molecular target: T1, RyR1 (Oryctolagus cuniculus, UniProt P11716); test: Equilibrium [3H]Ry binding analysis on RyR1-enriched microsomal membranes; design: species or system New Zealand White rabbits; details: for RyR1 inhibitory potency compared with 6 / decrease of apparent activation potency relative to 6: Figure 3C table insert; for maximum efficacy relative to 6: higher maximum efficacy at 50 μM compared to that reached by 6 at 1 μM; for decrease of apparent activation potency relative to 6: less potent activator than 6; for activity in enhancing [3H]Ry binding to RyR1: concentration-response, efficacy at 10 μM, Figure 3A, B
[2] = system: microsomal (JSR) membrane vesicles; test: Microsomal Ca2+ fluxes and Ca2+-induced Ca2+ release; format: biochemical, New Zealand White rabbits
SERCA1a = SERCA1a (Oryctolagus cuniculus, UniProt P04191); test: biochemical; format: biochemical, New Zealand White rabbits; details: for inhibition at 10 µM: read-out: SERCA1a inhibition; for activity toward SERCA1a: Figure 5G
[3] = system: Platynereis dumerilii embryos; details: cited from earlier work
RyR1 [4] = molecular target: T1, RyR1; details: previous data; cited from earlier work
[5] = system: CHO (Chinese hamster ovary) cells; details: cited from earlier work
[6] = at 2 μM, baseline = binding in presence of Veh alone, p < 0.05 vs Veh
[7] = expanded concentration range, Figure 3C
[8] = 5 or 10 μM, initial 60 s release rate, vesicles loaded with 4 × 45 nmole Ca2+

Sequence of SERCA1a (P04191 1-994 isoform P04191-2): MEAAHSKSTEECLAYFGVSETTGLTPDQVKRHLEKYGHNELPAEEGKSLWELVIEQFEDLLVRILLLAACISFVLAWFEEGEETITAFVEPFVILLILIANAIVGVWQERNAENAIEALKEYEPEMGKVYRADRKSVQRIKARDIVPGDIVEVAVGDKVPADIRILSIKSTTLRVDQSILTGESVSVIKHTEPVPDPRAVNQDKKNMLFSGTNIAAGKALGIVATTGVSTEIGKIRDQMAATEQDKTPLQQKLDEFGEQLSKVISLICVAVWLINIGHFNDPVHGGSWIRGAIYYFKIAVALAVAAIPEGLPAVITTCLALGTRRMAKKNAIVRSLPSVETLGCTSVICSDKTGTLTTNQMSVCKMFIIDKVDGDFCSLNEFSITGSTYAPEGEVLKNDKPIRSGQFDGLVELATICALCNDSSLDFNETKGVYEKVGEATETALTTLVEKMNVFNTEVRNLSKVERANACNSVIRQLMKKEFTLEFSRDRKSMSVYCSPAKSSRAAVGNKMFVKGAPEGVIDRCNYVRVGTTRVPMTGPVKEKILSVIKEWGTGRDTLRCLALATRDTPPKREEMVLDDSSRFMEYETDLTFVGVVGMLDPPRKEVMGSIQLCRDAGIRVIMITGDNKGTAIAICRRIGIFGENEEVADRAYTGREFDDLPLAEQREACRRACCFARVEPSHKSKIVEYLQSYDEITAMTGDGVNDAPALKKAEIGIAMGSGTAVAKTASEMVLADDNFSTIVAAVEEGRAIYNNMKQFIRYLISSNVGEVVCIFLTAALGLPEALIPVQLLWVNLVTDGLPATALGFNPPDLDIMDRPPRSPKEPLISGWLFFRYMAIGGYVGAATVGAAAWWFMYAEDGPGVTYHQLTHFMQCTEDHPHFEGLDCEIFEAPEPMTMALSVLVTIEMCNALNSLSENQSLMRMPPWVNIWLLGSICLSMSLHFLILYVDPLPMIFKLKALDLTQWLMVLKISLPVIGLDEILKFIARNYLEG

## Brc1[nH]c(Br)c(Br)c1Br [Compound 31, tetrabromopyrrole]
RyR1 [1]
  RyR1 inhibitory potency compared with 6: weaker inhibitors than 6
  maximum efficacy relative to 6: 2.5 fold
  decrease of apparent activation potency relative to 6: 68 fold
RyR1 [1]; [6]
  enhancement of [3H]Ry binding to RyR1 compared to baseline: ≥ 1.5 fold
RyR1 [1]; [7]
  mode of modulation of RyR1: biphasic
[2]; [8]
  net release of accumulated Ca2+ from loaded microsomal vesicles: triggered dose-dependent Ca^2+ efflux
SERCA1a; at 10 μM
  SERCA1a inhibition: 80%
[3]
  developmental toxicity: potent developmental toxicity

## Brc1ccc(Oc2cc(Br)ccc2Br)c(Br)c1 [BDE-49]
RyR1 [4]
  mode of action toward RyR1: monotonic

## Oc1cc(Br)c(Oc2ccc(Br)cc2Br)cc1Br [Compound 4-OH-BDE-49, 4′hydroxy-2,2′,4,5′-tetrabromodiphenyl ether]
RyR1 [4]
  mode of action toward RyR1: biphasic

## Hexabromobipyrroles [Compound 25]
RyR1 [1]; [6]
  enhancement of [3H]Ry binding to RyR1 compared to baseline: ≥ 1.5 fold
[2]; [8]
  net release of accumulated Ca2+ from loaded microsomal vesicles: triggered dose-dependent Ca^2+ efflux
[2]; concentration-dependent, Figure SI3
  loading capacity of calcium into microsomal vesicles: diminished the loading capacity
SERCA1a; at 2.0 μM
  SERCA1a inhibition: > 80%
SERCA1a; at 10 μM
  SERCA1a inhibition: ~ 90%

## CN1C(=O)C(Br)=C(Br)C1=O [Compound 28, 2,3-dibromo-N-methylmaleimide]
RyR1 [1]; [6]
  enhancement of [3H]Ry binding to RyR1 compared to baseline: ≥ 1.5 fold
RyR1 [1]; [7]
  mode of modulation of RyR1: biphasic

## Brc1cc(Br)c(Br)[nH]1 [Compound 34, 2,3,5-tribromopyrrole]
RyR1 [1]
  RyR1 inhibitory potency compared with 6: weaker inhibitors than 6
  maximum efficacy relative to 6: 2.5 fold
  decrease of apparent activation potency relative to 6: 107 fold
RyR1 [1]; [6]
  enhancement of [3H]Ry binding to RyR1 compared to baseline: ≥ 1.5 fold
RyR1 [1]; [7]
  mode of modulation of RyR1: biphasic
[5]
  cytotoxicity: cytotoxic
  genotoxicity: genotoxic
[2]; [8]
  net release of accumulated Ca2+ from loaded microsomal vesicles: triggered dose-dependent Ca^2+ efflux
SERCA1a
  inhibition at 10 µM: 48%

## Clc1[nH]c2ccccc2c1Cl [Compound 13, 2,3-dichloroindole]
RyR1 [1]; [6]
  enhancement of [3H]Ry binding to RyR1 compared to baseline: ≥ 1.5 fold

## Brc1[nH]c2ccccc2c1Br [Compound 14, 2,3-dibromoindole]
RyR1 [1]; [6]
  enhancement of [3H]Ry binding to RyR1 compared to baseline: ≥ 1.5 fold
[2]; [8]
  net release of accumulated Ca2+ from loaded microsomal vesicles: triggered dose-dependent Ca^2+ efflux
SERCA1a
  inhibition at 10 µM: 60%

## CCOC(=O)c1cc(Br)c[nH]1 [Compound 27, ethyl-4-bromopyrrole-2-carboxylate]
RyR1 [1]
  activity in enhancing [3H]Ry binding to RyR1: inactive
[2]; [8]
  net release of accumulated Ca2+ from loaded microsomal vesicles: failed to trigger net release
SERCA1a
  activity toward SERCA1a: inactive

## Brc1c[nH]c(Br)c1Br [Compound 26, 2,3,4-tribromopyrrole]
RyR1 [1]
  activity in enhancing [3H]Ry binding to RyR1: inactive
[2]; [8]
  net release of accumulated Ca2+ from loaded microsomal vesicles: failed to trigger net release
SERCA1a
  activity toward SERCA1a: inactive

## O=C1NC(=O)C(Br)=C1Br [Compound 6, 2,3-dibromomaleimide]
RyR1 [1]
  EC50: 0.36 µM
  IC50: 3 µM
  concentration at which RyR1 inhibitory phase was detected: < 5 µM
  concentration that maximally activated RyR1: 0.6−1.0 μM
  enhancement of [3H]Ry binding to RyR1 compared to baseline: ≥ 1.5 fold
  mode of modulation of RyR1: biphasic
[2]
  Ca2+-induced Ca2+ release rate vs control: significantly higher rates of release than control
  net release of accumulated Ca2+ from loaded microsomal vesicles: failed to trigger net Ca^2+ efflux
  sensitizing influence on calcium-induced calcium release: did not reach statistical significance
SERCA1a
  SERCA1a inhibition: without inhibition of SERCA1a
  concentration at which SERCA1a inhibition was detected (only the highest tested): 10 µM
  inhibition at 10 µM: 50%

## c1cc[nH]c1 [Compound 24, pyrrole]
RyR1 [1]
  activity in enhancing [3H]Ry binding to RyR1: inactive
SERCA1a
  activity toward SERCA1a: inactive

## Oc1c(Br)cc(Oc2c(Br)cc(Br)cc2Br)cc1Br [Compound 18, 4′-hydroxy-2,3′,4,5′,6-pentabromodiphenyl ether]
RyR1 [1]; [6]
  enhancement of [3H]Ry binding to RyR1 compared to baseline: ≥ 1.5 fold
[2]; [8]
  net release of accumulated Ca2+ from loaded microsomal vesicles: triggered dose-dependent Ca^2+ efflux
SERCA1a; at 2.0 μM
  SERCA1a inhibition: > 80%
SERCA1a; at 10 μM
  SERCA1a inhibition: ~ 90%

Reference: publication PMC6195434 (Environmental science & technology, 2018)
